Tests used:
PKA = PKA (Homo sapiens, UniProt P17612); conditions: read-out: Potency, IC50, PKA; cited from earlier work
PKG = biological target: T1, PKG (Homo sapiens, UniProt Q13976); conditions: read-out: Potency, IC50, PKG; cited from earlier work
T1 sequence (Q13976 1-671): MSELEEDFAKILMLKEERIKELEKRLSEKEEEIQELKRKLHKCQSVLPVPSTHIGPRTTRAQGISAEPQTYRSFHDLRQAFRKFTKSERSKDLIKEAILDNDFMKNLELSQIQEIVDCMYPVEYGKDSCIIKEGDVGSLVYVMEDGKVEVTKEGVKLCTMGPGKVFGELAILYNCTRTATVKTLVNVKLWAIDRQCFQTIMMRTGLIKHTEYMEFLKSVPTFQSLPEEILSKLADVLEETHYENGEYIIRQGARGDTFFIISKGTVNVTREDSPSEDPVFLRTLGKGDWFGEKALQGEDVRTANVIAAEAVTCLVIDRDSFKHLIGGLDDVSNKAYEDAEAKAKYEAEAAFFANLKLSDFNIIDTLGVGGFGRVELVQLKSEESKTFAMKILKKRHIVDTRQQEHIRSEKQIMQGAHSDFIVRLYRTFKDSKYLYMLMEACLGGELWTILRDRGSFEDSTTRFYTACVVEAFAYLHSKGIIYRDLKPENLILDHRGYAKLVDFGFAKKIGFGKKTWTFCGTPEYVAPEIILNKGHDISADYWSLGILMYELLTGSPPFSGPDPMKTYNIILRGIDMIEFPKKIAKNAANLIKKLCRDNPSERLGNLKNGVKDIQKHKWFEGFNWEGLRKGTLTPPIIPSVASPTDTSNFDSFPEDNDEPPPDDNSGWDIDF

PKC = conditions: read-out: Potency, IC50, PKC; cited from earlier work
[1] = tested on: differentiated P19 neurons; assay: Differentiated P19 excitotoxicity assay: neuroprotection by known kinase inhibitors against glutamate/glycine (Alamar Blue, CFDA); type: cell-based, murine; conditions: for Maximal Efficacy for Neuroprotection / IC50: 3 mM glutamate, 1 mM glycine; for IC50: mean of three separate curves, read-out: IC50 for Neuroprotection [lower-upper 95% C.I.]
Method: Data points are the average±standard error of three separate experiments.
These cells were used to measure the effects of various known kinase inhibitors (Compound Identification (ID) column in Table I) upon cytotoxicity-induced by NMDA. First, P19 cells were differentiated as described in Example 2. Then cells were exposed to 3 mM of glutamate in the presence of 1 mM glycine.
Cell viability was determined. Compounds that prevented excitotoxicity were determined by measuring the percentage of viable cells compared to differentiated P19 cells that were not presented with a toxic insult (Table I).
Cell viability was measured using two methods. The first method was a confocal, single-cell fluorescence imaging-based method using the live cell dye carboxy-fluorescein diacetate (CFDA). CFDA labels the cell bodies and processes of living cells. […] CFDA fluorescence was measured using a modified Attofluor Imager device (Atto Instruments, Rockville Pike, Md.). Cells were labeled with 1 uM CFDA for 15 min in media, then placed onto the stage of the Attofluor microscope. The dye was excited by light from a mercury lamp source passed through a 488 nm bandpass filter of 10 nm band width, passed through a CARV real-time confocal spinning disk module (Atto Instruments, Rockville, Md.), and then passed through a 40×oil immersion objective (Zeiss Fluar, NA=1.3). Emitted light was transmitted through a 495 nm dichroic mirror, collected to an Attofluor intensified CCD camera, and images were visualized using Attofluor Ratio Vision software (Atto Instruments, Rockville, Md.).
The second method for measuring cell viability was a plate reader method. Cells plated into black 96 well plates (Packard viewplates) were loaded with 5% Alamar Blue dye (Biosource International). Alamar Blue is a dye that takes advantage of mitochondrial reductases to convert non-fluorescent resazurin to fluorescent resorufin (excitation 535 nm, emission 580 nm). Baseline fluorescence counts were read at room temperature in a Wallac plate reader immediately after addition of Alamar blue. Fluorescence counts of cell viability were taken the same way after 1 hour incubation at 37° C. Fluorescence was expressed as a percent of control, untreated cells after subtraction of background fluorescence. Live/dead cells were confirmed visually with a light microscope.
Kinase inhibition activities and potencies were derived from the literature (Chijiwa et al. 1990; Favata et al. 1998; Henry et al. 1998; Inhorn and Majerus 1987; Kobayashi et al. 1989; Lee et al. 1994; Onoda et al. 1989; Tokumitsu et al. 1990). […] Curves were fit, and confidence intervals were determined using GraphPad Prism software.

p60^c-src = p60^c-src (Homo sapiens, UniProt P12931); conditions: read-out: Potency, IC50, p60^c-src; cited from earlier work
p60^c-src, sequence (P12931 whole entry): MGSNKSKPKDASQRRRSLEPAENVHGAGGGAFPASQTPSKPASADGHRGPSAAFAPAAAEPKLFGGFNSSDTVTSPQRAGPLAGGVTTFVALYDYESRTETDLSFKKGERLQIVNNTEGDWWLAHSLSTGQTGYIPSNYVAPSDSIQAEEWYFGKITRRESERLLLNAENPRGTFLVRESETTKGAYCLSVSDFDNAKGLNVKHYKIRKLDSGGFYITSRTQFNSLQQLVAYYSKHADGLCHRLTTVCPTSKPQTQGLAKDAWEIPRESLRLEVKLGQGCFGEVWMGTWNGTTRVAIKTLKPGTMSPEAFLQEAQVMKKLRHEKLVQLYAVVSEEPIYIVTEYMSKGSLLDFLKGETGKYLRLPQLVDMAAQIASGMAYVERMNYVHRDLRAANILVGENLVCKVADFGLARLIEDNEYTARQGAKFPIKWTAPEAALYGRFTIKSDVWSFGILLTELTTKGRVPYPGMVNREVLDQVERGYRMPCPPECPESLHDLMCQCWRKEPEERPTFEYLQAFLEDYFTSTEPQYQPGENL

P19 neurons = assay: Post-treatment time course of neuroprotection in P19 neurons (delayed neuroprotection); type: cell-based, murine; conditions: compound added after glutamate challenge
Text: Time-course of efficacy is an extremely relevant parameter for a potential neuroprotective therapeutic agent, since the therapeutic would need to be administered hours to days after an ischemic event and still retain efficacy.

EGF receptor = EGF receptor (Homo sapiens, UniProt P00533); conditions: read-out: Potency, IC50, EGF receptor; cited from earlier work
EGF receptor, sequence (P00533 25-1210): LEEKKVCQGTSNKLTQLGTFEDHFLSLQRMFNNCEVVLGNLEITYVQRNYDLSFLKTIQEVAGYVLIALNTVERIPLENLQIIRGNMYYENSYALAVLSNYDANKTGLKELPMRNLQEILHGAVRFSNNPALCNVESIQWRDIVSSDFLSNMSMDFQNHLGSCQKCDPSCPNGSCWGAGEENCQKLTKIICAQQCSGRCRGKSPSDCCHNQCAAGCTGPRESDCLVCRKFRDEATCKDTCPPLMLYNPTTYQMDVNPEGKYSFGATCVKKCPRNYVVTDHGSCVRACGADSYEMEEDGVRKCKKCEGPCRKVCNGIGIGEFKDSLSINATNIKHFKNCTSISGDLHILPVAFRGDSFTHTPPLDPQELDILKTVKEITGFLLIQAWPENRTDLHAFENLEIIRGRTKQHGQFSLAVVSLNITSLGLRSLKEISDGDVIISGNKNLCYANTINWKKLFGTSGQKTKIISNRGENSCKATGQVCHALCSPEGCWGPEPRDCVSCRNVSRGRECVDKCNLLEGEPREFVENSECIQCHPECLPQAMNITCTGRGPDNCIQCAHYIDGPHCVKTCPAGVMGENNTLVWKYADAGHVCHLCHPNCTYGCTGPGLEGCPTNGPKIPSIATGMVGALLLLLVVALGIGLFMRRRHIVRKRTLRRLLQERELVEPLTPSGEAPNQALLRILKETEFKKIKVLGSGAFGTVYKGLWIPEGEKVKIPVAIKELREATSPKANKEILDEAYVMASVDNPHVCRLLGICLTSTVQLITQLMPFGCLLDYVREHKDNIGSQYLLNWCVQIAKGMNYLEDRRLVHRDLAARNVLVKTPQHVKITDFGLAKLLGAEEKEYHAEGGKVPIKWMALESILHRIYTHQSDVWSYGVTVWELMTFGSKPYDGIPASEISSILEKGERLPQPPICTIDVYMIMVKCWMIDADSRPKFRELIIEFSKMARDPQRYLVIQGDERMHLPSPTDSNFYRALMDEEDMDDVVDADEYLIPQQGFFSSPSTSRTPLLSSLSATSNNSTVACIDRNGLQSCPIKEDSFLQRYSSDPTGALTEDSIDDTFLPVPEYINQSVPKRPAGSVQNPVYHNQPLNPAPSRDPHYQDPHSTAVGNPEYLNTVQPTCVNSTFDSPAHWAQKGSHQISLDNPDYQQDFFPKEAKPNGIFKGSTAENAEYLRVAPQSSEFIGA

NMDA receptor = NMDA receptor (Mus musculus, UniProt P35436+P35438+Q01097); conditions: P19 membranes, concentration-dependent
NMDA receptor, sequence (P35436 23-1464, other chains not shown): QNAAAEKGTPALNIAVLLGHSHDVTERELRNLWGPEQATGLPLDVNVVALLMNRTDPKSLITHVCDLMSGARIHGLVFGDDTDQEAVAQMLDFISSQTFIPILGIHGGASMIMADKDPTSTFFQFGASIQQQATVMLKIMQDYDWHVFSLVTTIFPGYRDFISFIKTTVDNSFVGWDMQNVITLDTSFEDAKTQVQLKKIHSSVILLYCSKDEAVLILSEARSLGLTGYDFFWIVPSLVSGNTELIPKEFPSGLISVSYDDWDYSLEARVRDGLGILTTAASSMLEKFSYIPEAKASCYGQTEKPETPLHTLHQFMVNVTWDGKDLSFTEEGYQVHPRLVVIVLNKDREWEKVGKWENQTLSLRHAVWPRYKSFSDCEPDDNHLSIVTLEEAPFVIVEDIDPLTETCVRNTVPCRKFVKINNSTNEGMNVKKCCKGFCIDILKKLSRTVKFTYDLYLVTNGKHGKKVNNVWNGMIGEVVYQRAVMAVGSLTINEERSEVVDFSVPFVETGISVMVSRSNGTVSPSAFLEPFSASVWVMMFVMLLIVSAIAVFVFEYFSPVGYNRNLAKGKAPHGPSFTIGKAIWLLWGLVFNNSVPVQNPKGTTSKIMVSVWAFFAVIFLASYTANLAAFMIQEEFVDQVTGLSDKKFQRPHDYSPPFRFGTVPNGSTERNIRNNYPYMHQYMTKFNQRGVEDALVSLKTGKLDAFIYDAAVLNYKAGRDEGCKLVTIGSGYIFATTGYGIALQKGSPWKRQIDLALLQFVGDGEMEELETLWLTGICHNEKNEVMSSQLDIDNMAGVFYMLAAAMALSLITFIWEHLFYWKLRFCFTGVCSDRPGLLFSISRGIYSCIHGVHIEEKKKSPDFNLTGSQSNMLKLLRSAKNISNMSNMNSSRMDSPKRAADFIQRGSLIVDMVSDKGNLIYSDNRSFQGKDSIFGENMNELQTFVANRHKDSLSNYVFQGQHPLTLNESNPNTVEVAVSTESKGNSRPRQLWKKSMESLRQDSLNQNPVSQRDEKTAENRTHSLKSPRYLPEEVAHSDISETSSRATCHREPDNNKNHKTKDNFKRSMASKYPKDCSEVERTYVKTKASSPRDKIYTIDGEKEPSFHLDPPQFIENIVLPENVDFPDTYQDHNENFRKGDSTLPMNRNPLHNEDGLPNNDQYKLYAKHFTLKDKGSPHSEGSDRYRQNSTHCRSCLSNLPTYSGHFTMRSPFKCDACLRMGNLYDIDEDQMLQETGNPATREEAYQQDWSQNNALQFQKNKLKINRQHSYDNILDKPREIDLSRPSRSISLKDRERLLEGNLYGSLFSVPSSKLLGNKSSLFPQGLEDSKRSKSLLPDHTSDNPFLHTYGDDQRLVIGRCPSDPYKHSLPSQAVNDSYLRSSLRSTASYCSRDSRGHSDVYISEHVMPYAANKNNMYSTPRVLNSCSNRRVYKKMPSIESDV
NMDA receptor, sequence (Q01097 27-1482, other chains not shown): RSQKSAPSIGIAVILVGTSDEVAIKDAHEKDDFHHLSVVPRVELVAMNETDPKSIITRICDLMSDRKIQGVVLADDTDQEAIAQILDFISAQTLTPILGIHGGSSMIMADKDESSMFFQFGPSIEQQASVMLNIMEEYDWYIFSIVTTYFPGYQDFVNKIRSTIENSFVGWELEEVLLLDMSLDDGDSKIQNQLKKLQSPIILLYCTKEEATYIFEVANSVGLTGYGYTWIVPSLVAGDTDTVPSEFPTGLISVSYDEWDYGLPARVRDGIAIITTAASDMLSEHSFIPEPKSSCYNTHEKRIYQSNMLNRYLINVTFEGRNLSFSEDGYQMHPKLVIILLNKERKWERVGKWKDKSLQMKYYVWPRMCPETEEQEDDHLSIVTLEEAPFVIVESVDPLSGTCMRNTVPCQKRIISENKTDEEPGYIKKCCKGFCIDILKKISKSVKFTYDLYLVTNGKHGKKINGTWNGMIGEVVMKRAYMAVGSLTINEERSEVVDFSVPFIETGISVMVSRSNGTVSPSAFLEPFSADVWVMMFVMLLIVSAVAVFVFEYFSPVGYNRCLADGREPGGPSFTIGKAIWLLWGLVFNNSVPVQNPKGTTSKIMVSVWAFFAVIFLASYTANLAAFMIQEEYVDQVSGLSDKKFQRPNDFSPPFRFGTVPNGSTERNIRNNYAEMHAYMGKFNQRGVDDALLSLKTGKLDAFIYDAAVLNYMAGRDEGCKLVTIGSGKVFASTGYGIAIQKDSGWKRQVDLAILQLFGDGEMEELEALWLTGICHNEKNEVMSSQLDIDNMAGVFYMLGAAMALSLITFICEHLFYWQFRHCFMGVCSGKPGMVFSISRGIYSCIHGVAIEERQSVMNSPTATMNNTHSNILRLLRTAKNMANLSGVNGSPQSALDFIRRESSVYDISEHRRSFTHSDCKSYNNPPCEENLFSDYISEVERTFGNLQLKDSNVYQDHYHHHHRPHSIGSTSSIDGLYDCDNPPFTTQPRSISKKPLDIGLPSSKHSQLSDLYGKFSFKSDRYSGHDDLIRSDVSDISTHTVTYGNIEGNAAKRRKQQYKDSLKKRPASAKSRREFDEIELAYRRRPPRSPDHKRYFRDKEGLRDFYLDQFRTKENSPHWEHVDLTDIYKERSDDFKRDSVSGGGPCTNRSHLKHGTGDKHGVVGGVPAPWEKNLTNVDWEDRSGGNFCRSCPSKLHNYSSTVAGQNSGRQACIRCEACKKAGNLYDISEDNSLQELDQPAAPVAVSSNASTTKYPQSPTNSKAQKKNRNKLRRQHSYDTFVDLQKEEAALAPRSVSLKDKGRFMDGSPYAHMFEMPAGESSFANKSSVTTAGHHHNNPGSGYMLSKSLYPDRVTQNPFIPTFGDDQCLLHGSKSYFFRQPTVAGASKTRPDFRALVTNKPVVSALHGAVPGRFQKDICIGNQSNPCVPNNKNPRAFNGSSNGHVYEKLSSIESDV
Method: MK-801 inhibition of [^3H]-MK-801 binding was assayed in P19 membranes. MK-801 concentrations are expressed as 10^−x Molar. Data points represent the mean±standard error from eight experiments. % control=((CPM−CPMbottom)/(CPMtop−CPMbottom))×100.

[2] = tested on: NMDA receptor-mediated intracellular calcium response; assay: Fura-2 imaging of glutamate/glycine-induced intracellular calcium response in P19 neurons; type: cell-based, murine; conditions: 100 μM MK-801, 24 hours prior to assay; 3 mM glutamate, 1 mM glycine
Method: MK-801 was administered 24 hours prior to assay. […] MK-801 concentrations are expressed as 10^−x Molar. […] (FIG. 1B).
U0126 was administered concurrently with glutamate and glycine.

Male Wistar rats = assay: Transient model of cerebral ischemia in rats (lesion volume); type: in vivo, rat; conditions: 3 mg/kg, i.p., 1 hr post ischemia onset; 24 h; average of 12
Method: Male Wistar rats (Iffa Crédo, France), weighing 250-300 g, were housed 2 per cage under a light-dark cycle of 12 hr-12 hr (light on at 7:00 a.m., off at 7:00 p.m.) at a room temperature of 21±2° C., with 50±15% humidity, for a minimum of 5 days before the experiments. During this time, the rats had free access to commercial rat chow (Trouw Nutrition France, Vigny, France, ref. 811002) and tap water.
The animals were anaesthetized with 5% halothane in air for induction, then 1-2% halothane during surgery. The rat's body temperature was maintained at 37° C. with a heating pad. A 2 cm incision was made at the center of the neck and the right common carotid artery (CCA), external carotid artery (ECA) and internal carotid artery (ICA) were exposed under an operating microscope. The ICA was further dissected to identify the pterygopalatine artery (PA) branch and the intracranial ICA branch. The CCA was ligated. A 3-0 silk suture was tied at the origin of the ECA and ligated. A catheter (id=0.58 mm) was introduced into the CCA through a small puncture and advanced to the intracranial branch of the ICA. A 4-0 surgical nylon suture was introduced into the catheter. A length of approximately 19 mm of nylon suture was gently advanced from the CCA into the lumen of the ICA until the suture blocked the origin of the MCA. The suture was sealed into the catheter by heat, leaving 1 cm of catheter protruding so the suture could be withdrawn to allow reperfusion. The incision was closed using skin clips. Anaesthesia was then terminated and the animals were placed under heat lamps until recovery from anaesthesia. The rats awakened 10-15 min later. After 2 hr of ischemia, reperfusion was performed by withdrawal of the suture until the tip cleared the ICA lumen. Vehicle or test compound was administered intraperitoneally (i.p.) or intravenously (i.v.) at 1 hr post ischemia onset.
24 h after the onset of occlusion, the rats were killed by decapitation. The brains were immediately removed, frozen in isopentane and stored at −20° C. The brains were then cut in 20 μm thick sections in a cryocut. Every 20th slice was used to measure infarct area. The sections were stained with cresyl violet and the areas of infarct in the striatum and cortex were determined by planimetry using an image analysis software (Image, NIH) after digitalization of the section images.
Following the procedure described above, MK-801, compound #46 and compound #264 (as listed in the Tables herein) were evaluated for neuroprotective effects in rats with results as listed in Table VIII. The data represent average lesion volume in mm^3 for 12 measurements. Vehicle used was 15% solutol in 5% dextrose.

Structure (SMILES): COc1c(C[C@@H](C)OC(=O)Oc2ccc(O)cc2)c2c3c(C[C@@H](C)OC(=O)c4ccccc4)c(OC)c(=O)c4c(O)cc(OC)c(c5c(OC)cc(O)c(c1=O)c52)c43 [Calphostin C]
- IC50 (PKA): > 50000 nM
- IC50 (PKG): > 25000 nM
- IC50 (PKC): ~50 nM
- Maximal Efficacy for Neuroprotection [1]: ˜50%
- IC50 [1]: > 1000 nM
- IC50 (p60^c-src): > 50000 nM

Structure (SMILES): COc1cc(N)nc2[nH]c(-c3ccc(F)cc3)c(-c3ccncc3)c12 [Compound A]
- time after glutamate challenge at which efficacy was lost (P19 neurons): 15 min

Structure (SMILES): O=C(O)c1cc(N(Cc2ccccc2O)Cc2cc(O)ccc2O)ccc1O [Lavendustin A]
- Maximal Efficacy for Neuroprotection [1]: <25%
- IC50 [1]: > 10000 nM
- IC50 (EGF receptor): ~11 nM
- IC50 (p60^c-src): ~500 nM

Structure (SMILES): C[C@]12N[C@H](Cc3ccccc31)c1ccccc12 [MK-801, reference compound]
- inhibition of [3H]-MK-801 binding achieved (NMDA receptor): 100%
- effect on intracellular calcium response to NMDA receptor agonists [2]: significantly inhibited this response
- Cortex + Striatum Vol. (mm^3) (Male Wistar rats): 205.4 ± 28.0 mm^3
- Cortex Vol. (mm^3) (Male Wistar rats): 135.0 ± 26.1 mm^3
- Striatum Vol. (mm^3) (Male Wistar rats): 70.4 ± 2.9 mm^3
- Maximal protection against glutamate toxicity ([1]; 3 mM glutamate and 1 mM glycine): close to control levels

Source: US20040006094A1, “4-pyrimidinamine derivatives, pharmaceutical compositions and related methods” (priority 2000, published 2004)
